Measured values reported in patent US5635379A, “D-2-alkyl-tryptophan and peptides containing same” (Deghenghi; Romano, priority 1990, dated 1997).
Square brackets hold non-standard residues; d marks the D form. Peptide text beside a SMILES is read from it. dTrp(2-Me) = Cc1[nH]c2ccccc2c1C[C@@H](N)C(=O)O

Tested on: GH release
Assay: GH response in conscious, freely-moving rats after antiserum pretreatment and i.v. peptide
Format: in vivo
Experimental: Sixty male rats were prepared with indwelling venous catheters under ether anesthesia three days before experimentation. On the day of experimentation, all animals were given an iv heparin injection (100 IU; 0630 h). At 0700 h, animals were treated with 0.5 ml of either normal serum (control-as), somatostatin antiserum (somatostatin-as; 0.25 ml+0.25 ml saline), growth hormone-releasing hormone antiserum (GHRH-as; 0.25 ml+0.25 ml saline), or both somatostatin antiserum and growth hormone-releasing hormone antiserum (0.25 ml somatostatin-as+0.25 ml GHRH-as). Blood sampling began […] after antiserum pretreatment, with blood samples collected every 20 minutes for three hours. After the 180 minute sample (1100 h), animals were treated iv with 25 μg/kg of either Hexarelin or GHRP-6. Blood samples were then collected at 5, 10, 15, 20 30, 40, and 60 minutes after peptide treatment. All samples were centrifuged immediately and the plasma frozen until assayed. The peak GH response to Hexarelin and GHRP-6 as well as the area under the response curves (AUCs) for the thirty minutes following peptide injection were calculated. Data were subjected to repeated measures analysis of variance and are expressed as mean ±SEM.

[1] = i.v. 25 μg/kg peptide, pooled over antiserum pretreatments

Cc1[nH]c2ccccc2c1C[C@@H](NC(=O)[C@@H](N)Cc1cnc[nH]1)C(=O)N[C@@H](C)C(=O)N[C@@H](Cc1c[nH]c2ccccc12)C(=O)N[C@H](Cc1ccccc1)C(=O)N[C@@H](CCCCN)C(N)=O [Example 4, His-D-2-methyl-Trp-Ala-Trp-D-Phe-Lys-NH2] (H-H[dTrp(2-Me)]AW[dF]K-NH2)
Mean GH [1]: 235 ± 21 ng/mL | Peak GH [1]: 552 ± 59 ng/mL | GH AUC (i.v. 25 μg/kg peptide, thirty minutes following injection, pooled over antiserum pretreatments): 7366 ± 912 ng/ml/30 min | overall GH response compared with GHRP-6 (i.v. 25 μg/kg, pooled results): more effective in eliciting a higher mean GH response as compared to GHRP-6
